Reference: ChEMBL document CHEMBL1201862, “PubChem BioAssay data set” (2004)
Calls of active or inactive are those of the source.

What was measured:
Vasopressin V1a receptor = Vasopressin V1a receptor (Homo sapiens, UniProt P37288); assay: Counterscreen for Oxytocin Receptor (OXTR) agonists: Fluorescence-based cell-based high throughput dose response assay to identify agonists of the vasopressin 1 receptor (V1R). [Related pubchem assays: 2435 (Primary screen (OXTR agonists in singlicate)), 434991 (Counterscreen (V1R agonists in triplicate)), 2482 (Summary (OXTR agonists)) …; type: functional
Oxytocin receptor = Oxytocin receptor (Homo sapiens, UniProt P30559); assay: Fluorescence-based cell-based high throughput dose response assay for agonists of the Oxytocin Receptor (OXTR). [Related pubchem assays: 2435 (Primary screen (OXTR agonists in singlicate)), 434991 (Counterscreen (V1R agonists in triplicate)), 2482 (Summary (OXTR agonists)), 434963 (Confirmation screen (OXTR agonists in triplicate))]; type: functional
HEK293 [1] = assay: NOD1 signaling inhibitors, primary screen, cell-based, luminescence, uHTS (AID 1578); type: functional; details: Homo sapiens
HEK293 [2] = assay: cells; type: functional, cell-based; details: Homo sapiens
HEK293 [3] = assay: cells; type: functional, cell-based; details: Homo sapiens; remark: listed apart in the source
HEK293 [4] = assay: NOD2 signaling inhibitors in MDP-stimulated cells, cell-based, uHTS, luminescence (AID 2001); type: functional; details: Homo sapiens
Tumor necrosis factor = Tumor necrosis factor (Homo sapiens, UniProt P01375); assay: TNFa-triggered NF-kB activation inhibitors, SAR follow-up, cell-based, revised (AID 2337); type: functional
[5] = molecular target: Nucleotide-binding oligomerization domain-containing protein 1 (Homo sapiens, UniProt Q9Y239); assay: NOD1 signaling inhibitors, SAR follow-up, revised (AID 2333); type: functional
[6] = molecular target: Nucleotide-binding oligomerization domain-containing protein 2 (Homo sapiens, UniProt Q9HC29); assay: PubChem AID 2334; type: functional
HEK293 [7] = assay: cells; details: Homo sapiens
[8] = system: Streptococcus sp. 'group A'; assay: growth inhibition of control SK(-) GAS strain, dose response, counter-screen for streptokinase expression inhibitor project, luminescence, kanamycin, BacTiterGlo, confirmation (AID 1900); type: functional, organism-based
Streptococcus [9] = assay: Luminescence Microorganism-Based Dose Response Follow up to Identify Compounds Cytotoxic to Streptococcus. [Related pubchem assays: 1677 (Project Summary), 1915, 1914, 1902 (Retest at Dose), 1900 (Counter Screen), 1662 (Primary HTS)]; type: functional, organism-based
Streptokinase A = molecular target: T1, Streptokinase A (Streptococcus pyogenes serotype M1, UniProt P10520); assay: S. pyogenes streptokinase expression inhibitors, potency, dose response, plasminogen activation absorbance, OD405 (AID 1914); type: functional, Streptococcus pyogenes M1 GAS;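 further: secreted streptokinase activity via plasminogen activation per viability signal from cell pellet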
T1 sequence (P10520 whole entry): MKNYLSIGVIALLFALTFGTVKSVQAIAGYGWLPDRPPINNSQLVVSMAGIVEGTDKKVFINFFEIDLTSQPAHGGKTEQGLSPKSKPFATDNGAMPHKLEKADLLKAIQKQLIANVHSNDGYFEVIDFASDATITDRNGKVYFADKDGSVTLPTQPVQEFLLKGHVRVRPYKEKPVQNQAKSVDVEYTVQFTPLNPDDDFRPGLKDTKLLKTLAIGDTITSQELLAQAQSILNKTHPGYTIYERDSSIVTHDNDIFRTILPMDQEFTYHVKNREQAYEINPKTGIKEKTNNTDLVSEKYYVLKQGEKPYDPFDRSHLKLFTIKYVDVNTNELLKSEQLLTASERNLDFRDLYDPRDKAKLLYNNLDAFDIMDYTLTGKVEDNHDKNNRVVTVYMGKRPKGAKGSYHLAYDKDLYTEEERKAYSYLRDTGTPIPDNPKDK

Streptococcus [10] = assay: Group A Streptococcus viability loss, dose response, counter-screen for streptokinase expression inhibitor project, luminescence, BacTiterGlo (AID 1915); type: functional, organism-based;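 further: potency for reduction of bacterial viability or growth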
Aspartyl aminopeptidase = molecular target: T2, Aspartyl aminopeptidase (Plasmodium falciparum 3D7, UniProt Q8I2J3)
T2 sequence (Q8I2J3 whole entry): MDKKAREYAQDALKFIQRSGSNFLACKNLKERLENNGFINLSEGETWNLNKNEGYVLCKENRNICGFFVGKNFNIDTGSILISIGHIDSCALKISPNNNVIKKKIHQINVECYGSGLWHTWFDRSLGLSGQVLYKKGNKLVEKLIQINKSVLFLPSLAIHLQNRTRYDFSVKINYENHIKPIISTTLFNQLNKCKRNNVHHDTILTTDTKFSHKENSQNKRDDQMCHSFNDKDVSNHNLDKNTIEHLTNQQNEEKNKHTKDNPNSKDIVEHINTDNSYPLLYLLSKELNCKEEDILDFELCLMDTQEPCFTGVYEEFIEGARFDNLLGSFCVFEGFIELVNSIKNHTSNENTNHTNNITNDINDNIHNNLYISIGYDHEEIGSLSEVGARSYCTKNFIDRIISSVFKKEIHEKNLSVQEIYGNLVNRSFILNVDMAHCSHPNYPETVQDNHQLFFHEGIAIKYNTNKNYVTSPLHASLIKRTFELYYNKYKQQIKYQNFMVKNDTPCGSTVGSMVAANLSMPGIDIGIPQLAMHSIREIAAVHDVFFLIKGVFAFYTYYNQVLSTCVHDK

Procathepsin L = Procathepsin L (Homo sapiens, UniProt P07711)
BJ [11] = assay: cytotoxicity toward BJ-TERT fibroblasts, dose response, cell-based, RAS-independent, luminescence (AID 1933); type: functional; details: Homo sapiens
BJ [12] = assay: cells; type: functional, cell-based; details: Homo sapiens
[13] = molecular target: Luciferin 4-monooxygenase (Photinus pyralis, UniProt P08659); assay: firefly luciferase enzyme inhibitors, dose response, biochemical, luminescence (AID 1891)
[14] = Luminescence Cell-Based Dose Confirmation HTS to Identify Inhibitors of Platelet Dense Granule Release. [Related pubchem assays: 1663 (Primary HTS), 1678 (Summary of Project)]; type: functional
BJ [15] = assay: cytotoxicity toward BJ-TERT-LT-ST fibroblasts, dose response, cell-based, RAS-independent, luminescence (AID 1935); type: functional; details: Homo sapiens;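 further: BJ fibroblasts immortalized with TERT plus LT and ST oncogenes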
[16] = cytotoxicity toward DRD oncogenic fibroblasts, dose response, cell-based, non-viral oncogenic, luminescence (AID 1934); type: functional; details: Homo sapiens
[17] = molecular target: Glucose-6-phosphate 1-dehydrogenase (Homo sapiens, UniProt P11413); assay: human G6PD enzyme inhibitors, dose response, selectivity assay for P. falciparum G6PD inhibitor project, biochemical, fluorescence (AID 504792); type: functional
[18] = inhibition of ADP-Glo detection reagents, dose response, artefact control for CDK5 inhibitor project, biochemical, luminescence, cherry-picked samples, set 2 (AID 504546); type: functional
[19] = molecular target: Cyclin-dependent kinase 5/CDK5 activator 1 (Homo sapiens, UniProt Q00535); assay: CDK5/p35 kinase inhibitors, dose response, biochemical, cherry-picked samples, set 2 (AID 504545)
HEK293 [20] = assay: inhibitors of LMP1-driven NF-kB reporter, dose response, cell-based, HEK293, luciferase, cherry-pick (AID 588343); type: functional; details: Homo sapiens
INS1 = assay: beta cell apoptosis inhibitors, cytokine rescue, dose response, luminescence, retest (AID 449756); type: functional, cell-based; details: Rattus norvegicus;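 further: cell death triggered by IL-1 beta plus TNF-alpha plus IFN-gamma mixture; protective hits raise ATP signal compared with cytokine alone wells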
CAAX prenyl protease 2 = CAAX prenyl protease 2 (Homo sapiens, UniProt Q9Y256); assay: human Rce1 protease inhibitors, dose response, biochemical, yeast membranes, quenched-peptide fluorescence, cherry-pick (AID 588849)
Paired box protein Pax-8 = Paired box protein Pax-8 (Homo sapiens, UniProt Q06710); assay: inhibitors of PAX8-driven TPO luciferase reporter, dose response, RMG-I cells, cherry-pick (AID 687027); type: functional, cell-based;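 further: luciferase reporter driven by Pax8 target thyroperoxidase promoter measured by SteadyGlo luminescence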
[21] = non-specific cell cytotoxicity, dose response, cytotoxicity control for PAX8 inhibitor project, plate reader, dry powder samples (AID 743021); type: functional, cell-based

Vasopressin V1a receptor, sequence (P37288 whole entry): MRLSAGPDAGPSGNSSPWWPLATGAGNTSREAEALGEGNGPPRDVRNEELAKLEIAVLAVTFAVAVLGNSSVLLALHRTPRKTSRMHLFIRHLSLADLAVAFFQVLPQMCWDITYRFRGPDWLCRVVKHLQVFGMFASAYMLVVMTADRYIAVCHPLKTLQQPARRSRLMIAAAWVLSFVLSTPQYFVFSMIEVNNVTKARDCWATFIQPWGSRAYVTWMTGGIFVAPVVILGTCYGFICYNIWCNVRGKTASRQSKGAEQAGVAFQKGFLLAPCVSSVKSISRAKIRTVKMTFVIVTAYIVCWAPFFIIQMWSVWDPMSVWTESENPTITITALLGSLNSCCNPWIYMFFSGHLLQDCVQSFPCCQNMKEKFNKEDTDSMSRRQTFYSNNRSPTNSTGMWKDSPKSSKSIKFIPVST
Tumor necrosis factor, sequence (P01375 whole entry, the tested form may be a part): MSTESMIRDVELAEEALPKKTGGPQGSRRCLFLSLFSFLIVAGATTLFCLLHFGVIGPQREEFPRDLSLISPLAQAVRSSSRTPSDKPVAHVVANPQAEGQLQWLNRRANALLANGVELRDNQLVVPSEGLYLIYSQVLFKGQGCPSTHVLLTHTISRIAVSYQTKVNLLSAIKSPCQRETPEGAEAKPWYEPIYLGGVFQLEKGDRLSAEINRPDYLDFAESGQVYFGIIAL
Procathepsin L, sequence (P07711 whole entry): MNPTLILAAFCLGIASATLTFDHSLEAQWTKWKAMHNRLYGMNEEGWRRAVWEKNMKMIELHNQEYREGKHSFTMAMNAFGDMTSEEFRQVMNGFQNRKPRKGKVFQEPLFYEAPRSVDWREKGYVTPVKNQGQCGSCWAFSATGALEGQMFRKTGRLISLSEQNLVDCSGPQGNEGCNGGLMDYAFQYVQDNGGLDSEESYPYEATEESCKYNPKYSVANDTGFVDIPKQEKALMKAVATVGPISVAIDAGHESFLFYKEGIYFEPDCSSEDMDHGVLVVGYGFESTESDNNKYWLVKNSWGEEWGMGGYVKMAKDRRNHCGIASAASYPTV
Cyclin-dependent kinase 5/CDK5 activator 1, sequence (Q00535 whole entry): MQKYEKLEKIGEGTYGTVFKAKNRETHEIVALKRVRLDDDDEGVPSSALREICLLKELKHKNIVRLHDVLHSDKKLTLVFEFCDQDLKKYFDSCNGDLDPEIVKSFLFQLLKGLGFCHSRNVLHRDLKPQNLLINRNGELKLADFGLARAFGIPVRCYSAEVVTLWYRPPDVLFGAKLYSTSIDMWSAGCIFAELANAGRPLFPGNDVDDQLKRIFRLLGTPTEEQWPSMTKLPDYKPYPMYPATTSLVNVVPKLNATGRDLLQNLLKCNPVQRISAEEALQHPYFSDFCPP
Cyclin-dependent kinase 5/CDK5 activator 1, sequence (Q15078 whole entry, further chain): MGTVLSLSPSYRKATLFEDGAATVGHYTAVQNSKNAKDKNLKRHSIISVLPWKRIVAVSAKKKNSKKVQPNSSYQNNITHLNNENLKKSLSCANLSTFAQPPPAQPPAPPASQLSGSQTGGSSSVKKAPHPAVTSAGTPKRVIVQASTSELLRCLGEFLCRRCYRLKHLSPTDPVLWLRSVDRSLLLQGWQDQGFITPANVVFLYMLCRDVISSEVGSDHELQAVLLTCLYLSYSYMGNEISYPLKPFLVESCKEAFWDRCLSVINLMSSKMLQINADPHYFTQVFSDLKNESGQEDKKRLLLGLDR
Oxytocin receptor, sequence (P30559 whole entry): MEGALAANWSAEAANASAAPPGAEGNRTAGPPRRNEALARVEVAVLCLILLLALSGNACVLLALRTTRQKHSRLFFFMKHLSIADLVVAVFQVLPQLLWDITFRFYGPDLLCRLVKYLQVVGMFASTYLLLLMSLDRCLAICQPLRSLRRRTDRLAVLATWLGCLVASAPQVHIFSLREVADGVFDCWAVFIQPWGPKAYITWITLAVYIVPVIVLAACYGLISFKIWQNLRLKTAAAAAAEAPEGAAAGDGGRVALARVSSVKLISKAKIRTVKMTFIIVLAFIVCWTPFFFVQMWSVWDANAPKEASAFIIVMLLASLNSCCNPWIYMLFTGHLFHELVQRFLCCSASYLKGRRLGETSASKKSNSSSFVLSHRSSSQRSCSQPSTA
Paired box protein Pax-8, sequence (Q06710 whole entry): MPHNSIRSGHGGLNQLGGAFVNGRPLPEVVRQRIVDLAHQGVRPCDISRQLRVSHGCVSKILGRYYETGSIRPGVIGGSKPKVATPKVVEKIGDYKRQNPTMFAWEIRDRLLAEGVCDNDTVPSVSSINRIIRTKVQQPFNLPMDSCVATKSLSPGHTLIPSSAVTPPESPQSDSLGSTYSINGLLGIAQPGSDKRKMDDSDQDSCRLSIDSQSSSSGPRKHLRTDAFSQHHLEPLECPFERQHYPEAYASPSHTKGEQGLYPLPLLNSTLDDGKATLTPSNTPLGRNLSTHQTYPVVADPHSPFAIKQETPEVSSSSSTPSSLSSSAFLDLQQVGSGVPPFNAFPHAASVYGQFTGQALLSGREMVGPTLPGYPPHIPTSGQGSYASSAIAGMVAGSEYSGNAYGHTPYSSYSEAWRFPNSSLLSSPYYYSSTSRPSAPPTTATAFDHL
Nucleotide-binding oligomerization domain-containing protein 2, sequence (Q9HC29 whole entry, the tested form may be a part): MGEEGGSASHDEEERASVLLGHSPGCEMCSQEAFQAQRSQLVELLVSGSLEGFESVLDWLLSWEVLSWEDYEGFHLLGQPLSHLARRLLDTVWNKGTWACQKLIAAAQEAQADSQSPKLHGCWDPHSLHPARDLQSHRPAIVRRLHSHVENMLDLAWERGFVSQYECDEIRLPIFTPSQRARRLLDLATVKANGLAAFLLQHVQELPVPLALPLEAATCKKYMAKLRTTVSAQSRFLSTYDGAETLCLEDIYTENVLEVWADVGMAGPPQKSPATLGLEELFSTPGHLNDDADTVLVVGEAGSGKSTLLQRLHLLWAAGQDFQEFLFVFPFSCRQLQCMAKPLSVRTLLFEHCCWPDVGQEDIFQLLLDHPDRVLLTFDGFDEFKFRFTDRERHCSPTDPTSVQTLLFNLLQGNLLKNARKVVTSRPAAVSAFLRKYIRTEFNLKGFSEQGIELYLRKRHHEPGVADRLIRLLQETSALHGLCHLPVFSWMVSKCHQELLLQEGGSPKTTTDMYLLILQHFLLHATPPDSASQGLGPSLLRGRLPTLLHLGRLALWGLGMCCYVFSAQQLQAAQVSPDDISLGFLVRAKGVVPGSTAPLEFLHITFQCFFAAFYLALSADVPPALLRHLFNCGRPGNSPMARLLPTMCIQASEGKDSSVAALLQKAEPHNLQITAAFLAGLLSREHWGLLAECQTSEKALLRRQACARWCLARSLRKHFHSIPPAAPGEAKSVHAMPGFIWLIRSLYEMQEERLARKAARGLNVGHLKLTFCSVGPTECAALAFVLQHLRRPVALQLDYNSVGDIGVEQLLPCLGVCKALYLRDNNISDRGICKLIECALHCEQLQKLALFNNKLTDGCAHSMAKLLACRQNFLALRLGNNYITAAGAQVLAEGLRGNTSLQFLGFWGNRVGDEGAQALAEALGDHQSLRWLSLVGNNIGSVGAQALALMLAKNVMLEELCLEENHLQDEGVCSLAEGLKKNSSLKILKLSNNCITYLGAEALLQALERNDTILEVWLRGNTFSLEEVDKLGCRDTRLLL
CAAX prenyl protease 2, sequence (Q9Y256 whole entry): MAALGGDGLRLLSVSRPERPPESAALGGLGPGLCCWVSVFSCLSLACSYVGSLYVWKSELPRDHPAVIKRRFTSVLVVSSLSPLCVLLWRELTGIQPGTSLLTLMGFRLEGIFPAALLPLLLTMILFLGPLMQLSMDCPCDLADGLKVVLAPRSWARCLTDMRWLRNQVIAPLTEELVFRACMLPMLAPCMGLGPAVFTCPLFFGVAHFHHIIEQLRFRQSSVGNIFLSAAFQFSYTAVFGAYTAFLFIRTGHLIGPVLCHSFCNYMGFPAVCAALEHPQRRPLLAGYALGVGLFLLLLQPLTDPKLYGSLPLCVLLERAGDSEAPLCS
Nucleotide-binding oligomerization domain-containing protein 1, sequence (Q9Y239 whole entry, the tested form may be a part): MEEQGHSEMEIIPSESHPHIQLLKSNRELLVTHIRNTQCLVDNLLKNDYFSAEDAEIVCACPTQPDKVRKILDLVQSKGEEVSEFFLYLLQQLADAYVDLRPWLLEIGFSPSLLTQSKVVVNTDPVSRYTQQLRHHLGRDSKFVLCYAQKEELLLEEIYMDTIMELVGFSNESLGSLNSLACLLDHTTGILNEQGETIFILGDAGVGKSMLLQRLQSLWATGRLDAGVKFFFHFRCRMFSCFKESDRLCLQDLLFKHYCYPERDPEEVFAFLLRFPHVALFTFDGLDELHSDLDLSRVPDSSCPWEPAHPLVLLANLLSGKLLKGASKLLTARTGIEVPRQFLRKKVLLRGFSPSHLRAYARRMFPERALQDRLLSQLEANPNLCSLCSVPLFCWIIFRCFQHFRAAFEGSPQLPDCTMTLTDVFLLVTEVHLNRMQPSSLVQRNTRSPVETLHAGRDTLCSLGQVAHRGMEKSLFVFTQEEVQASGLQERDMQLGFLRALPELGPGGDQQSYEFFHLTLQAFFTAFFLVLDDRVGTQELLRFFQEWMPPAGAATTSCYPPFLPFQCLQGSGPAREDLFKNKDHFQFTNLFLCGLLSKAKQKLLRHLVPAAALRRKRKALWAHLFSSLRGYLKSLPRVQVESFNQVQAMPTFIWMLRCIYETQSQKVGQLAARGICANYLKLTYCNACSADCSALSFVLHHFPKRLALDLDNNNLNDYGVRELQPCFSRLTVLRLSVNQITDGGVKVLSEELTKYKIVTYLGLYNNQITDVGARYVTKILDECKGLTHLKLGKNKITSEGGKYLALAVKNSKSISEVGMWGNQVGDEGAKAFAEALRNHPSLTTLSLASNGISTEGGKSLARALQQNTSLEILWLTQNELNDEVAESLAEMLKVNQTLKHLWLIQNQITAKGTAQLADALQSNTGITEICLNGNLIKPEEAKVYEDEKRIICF

Q: With `CC(C(=O)Nc1ccc2c(c1)OCO2)c1ccc([N+](=O)[O-])cc1` (stereo not given) as the molecule, how does the EC50 (Vasopressin V1a receptor) read?
A: Its EC50 is > 29.9 µM (not active).

Q: And the EC50 (Oxytocin receptor)?
A: The EC50 was > 29.9 µM (not active).

Q: With `COc1cccc(Nc2nc3ccccc3nc2NS(=O)(=O)c2cccs2)c1` as the molecule, how does the EC50 (HEK293 [1]) read?
A: Its EC50 is 3.67 µM (active).

Q: And the IC50 (HEK293 [2])?
A: Its IC50 is > 20 µM (inactive).

Q: And the IC50 (HEK293 [3])?
A: Its IC50 is > 20 µM (inactive).

Q: What about the IC50 (HEK293 [4]) of the same molecule?
A: The IC50 was 11.5 µM (inactive).

Q: And the IC50 (Tumor necrosis factor)?
A: Its IC50 is 12.3 µM (active).

Q: What about the IC50 [5] of the same molecule?
A: Its IC50 is 4.68 µM (active).

Q: What about the IC50 [6] of the same molecule?
A: Its IC50 is 6.08 µM (active).

Q: What about the IC50 (HEK293 [7]) of the same molecule?
A: The IC50 was > 20 µM (inactive).

Q: For `Clc1cccc(Cl)c1CSc1nnc(/C=C/c2ccccc2)o1`, which EC50 [8] is on record?
A: Its EC50 is 28.8 µM (active).

Q: What about the EC50 (Streptococcus [9]) of the same molecule?
A: Its EC50 is > 500 µM (not active).

Q: And the EC50 (Streptokinase A)?
A: Its EC50 is 4.01 µM (active).

Q: What about the EC50 (Streptococcus [10]) of the same molecule?
A: Its EC50 is > 150 µM (not active).

Q: Which IC50 (Aspartyl aminopeptidase) does the source give for `Cc1ccc(N2C(=O)/C(=C\Nn3cnnc3)c3ccccc3C2=O)cc1` here?
A: Its IC50 is 1.95 µM (active).

Q: What about the IC50 (Procathepsin L) of the same molecule?
A: The IC50 was > 59.6 µM (not active).

Q: Which results are given for `COc1ccc(/C=C/c2nc3ccccc3n2C)cc1`?
A: EC50 (BJ [11]): 9.33 µM (active); EC50 (BJ [12]): 7.64 µM (active); EC50 [13]: 0.747 µM (active); EC50 [14]: 1.01 µM (active); EC50 (BJ [15]): > 150 µM (inconclusive); EC50 [16]: 7.64 µM (active); IC50 [17]: > 80 µM (inactive); AC50 [18]: 27 µM (active); AC50 [19]: 16.4 µM (active); AC50 (HEK293 [20]): 0.997 µM (active); AC50 (INS1): 4.95 µM (active); AC50 (CAAX prenyl protease 2): 7.09 µM (active); AC50 (Paired box protein Pax-8): 6.69 µM (active); AC50 [21]: 5.95 µM (active)
